Measured values reported in patent publication US10656162B2, “Use of glu-tubulin as a biomarker of drug response to furazanobenzimidazoles” (Basilea Pharmaceutica AG, priority 2011, dated 2020).

Key:
[1] = tested on: CXF 1103 patient-derived colorectal tumour; assay: Colony outgrowth assay, CXF 1103; assay type: cell-based, human; conditions: for Response to compound (BAL27862, paclitaxel, vinblastine): CXF 1103, colorectal cancer, ex vivo colony outgrowth
Method: (§1) Single cell suspensions of patient-derived tumour xenografts (maintained in nude mice) were prepared. For colony outgrowth assays, cells were plated in soft agar in 24-well plates according to the assay introduced by Hamburger & Salmon (Primary bioassay of human tumour stem cells, Science, 1977.197:461-463). 2×10^4-6×10^4 cells in 0.2 mL medium containing 0.4% agar were plated out on a bottom layer of 0.75% agar. Test compounds were applied in 0.2 mL culture medium. Every 24-well plate contained untreated controls and samples in triplicates. Cultures were incubated at 37° C. and 7.5% CO2 for 5-28 days. 24 hours prior to analysis, vital colonies were stained with a solution of metabolisable tetrazolium salt (Alley M C et al, Life Sci. 1982, 31:3071-3078) and were counted with an automatic image analysis system (Omnicon 3600, Biosys GmbH).
(§2) Relative drug effects were expressed by the ratio of the mean number of colonies in the treated wells and the control wells. IC70-values were determined by plotting compound concentrations versus relative colony counts.

[2] = tested on: CXF 243 patient-derived colorectal tumour; assay: Colony outgrowth assay, CXF 243; assay type: cell-based, human; parameters: key to Response to compound (BAL27862, paclitaxel, vinblastine): Sensitive: BAL27862-sensitive tumour cells have IC70 values in the low nanomolar range; Resistant: BAL27862-resistant tumour cells are defined by IC70 values >600 nanomolar; conditions: for Response to compound (BAL27862, paclitaxel, vinblastine): CXF 243, colorectal cancer, ex vivo colony outgrowth
Method: as §1, §2

[3] = tested on: LXFE 211 Patient-derived lung tumour; assay: Colony outgrowth assay, LXFE 211; assay type: cell-based, human; parameters: key to Response to compound (BAL27862, paclitaxel, vinblastine): Sensitive: BAL27862-sensitive tumour cells have IC70 values in the low nanomolar range; Resistant: BAL27862-resistant tumour cells are defined by IC70 values >600 nanomolar; conditions: for Response to compound (BAL27862, paclitaxel, vinblastine): LXFE 211, lung cancer, ex vivo colony outgrowth
Method: as §1, §2

[4] = tested on: LXFE 397 Patient-derived lung tumour; assay: Colony outgrowth assay, LXFE 397; assay type: cell-based, human
Method: as §1, §2

[5] = tested on: MEXF 1341 patient-derived melanoma; assay: Colony outgrowth assay, MEXF 1341; assay type: cell-based, human; parameters: key to Response to compound (BAL27862, paclitaxel, vinblastine): Sensitive: BAL27862-sensitive tumour cells have IC70 values in the low nanomolar range; Resistant: BAL27862-resistant tumour cells are defined by IC70 values >600 nanomolar; conditions: for Response to compound (BAL27862, paclitaxel, vinblastine): MEXF 1341, melanoma, ex vivo colony outgrowth
Method: as §1, §2

[6] = tested on: MEXF 276 patient-derived melanoma; assay: Colony outgrowth assay, MEXF 276; assay type: cell-based, human; conditions: for Response to compound (BAL27862, paclitaxel, vinblastine): MEXF 276, melanoma, ex vivo colony outgrowth
Method: as §1, §2

[7] = tested on: A549 BAL27862-resistant cell line variant; assay: Crystal Violet assay, BAL27862-resistant A549 versus parental line; assay type: cell-based, human; conditions: for Resistance factors (ratio of IC50 BAL27862-resistant cell line variant and IC50 parental cell line): A549, 72 hours, Crystal Violet
Description: (§3) BAL27862-resistant sublines of human non-small cell lung cancer (H460 ATCC reference HTB-177; A549 ATCC reference CCL-185), ovarian cancer (SKOV3 ATCC reference HTB-77) lines were generated by long-term selection in complete cell culture medium (RPMI-1640 containing 10% FCS; Sigma-Aldrich) by stepwise increasing concentrations of BAL27862. […] The resistant sublines were expanded at the highest tolerated BAL27862 concentration and subsequently frozen and stored in liquid nitrogen.
(§4) After medium was removed, cells were fixed and stained by adding 50 μl Crystal Violet Staining (0.2% Crystal Violet in 50% Methanol) per well. Plates were incubated for 1 hour at room temperature. Subsequently the stain was decanted and plates were washed 4 times with double-distilled water. Plates were air-dried for several hours. Stain was dissolved by adding 100 μl buffer (0.1 M Tris pH 7.5, 0.2% SDS, 20% Ethanol) per well and shaking the plates. Absorbance at 590 nm was measured using a SpectraMax M2e plate reader (Molecular Devices). Anti-proliferative IC50 values were calculated from concentration response curves using GraphPad Prism software. Resistance factors were calculated as a ratio of BAL27862 IC50 in the resistant line variant versus the IC50 in the parental line.

[8] = tested on: H460 BAL27862-resistant cell line variant; assay: Crystal Violet assay, BAL27862-resistant H460 versus parental line; assay type: cell-based, human; conditions: for Resistance factors (ratio of IC50 BAL27862-resistant cell line variant and IC50 parental cell line): H460, 72 hours, Crystal Violet
Description: as §3, §4

SKOV3 resistant 1 = assay: Crystal Violet assay, SKOV3 resistant 1 versus parental line; assay type: cell-based, human; conditions: for Resistance factors (ratio of IC50 BAL27862-resistant cell line variant and IC50 parental cell line): SKOV3 resistant 1, 72 hours, Crystal Violet
Description: as §3, §4

SKOV3 resistant 2 = assay: Crystal Violet assay, SKOV3 resistant 2 versus parental line; assay type: cell-based, human; conditions: for Resistance factors (ratio of IC50 BAL27862-resistant cell line variant and IC50 parental cell line): SKOV3 resistant 2, 72 hours, Crystal Violet
Description: as §3, §4

A549 NSCLC cells = assay: Immunofluorescent staining of microtubules, A549; assay type: cell-based, human; conditions: for Microtubule phenotype of mitotic or G2/M arrested cells: A549, 24 hours, 50 nM BAL27862, 80 nM Compound B, 20 nM Compound C, anti-alpha-tubulin staining
Method: (§5) A549 human non-small cell lung cancer (NSCLC, ATCC reference number CCL-185) cells, HeLa cervical cancer cells (ATCC reference number CCL-2) and SKBR3 breast carcinoma cells (ATCC reference number HTB-30) were seeded at densities of 50% on round microscope coverslips and cultured for 24 hours in RPMI-1640 containing 10% FCS (also referred to as FBS) at 37° C., 5% CO2. Compounds to be tested were dissolved in DMSO. The cell culture medium was replaced with medium containing the diluted compound(s) (paclitaxel, vinblastine, colchicine and nocodazole were purchased from Sigma-Aldrich) or vehicle. After treatment for the times indicated in the Brief Description of the Figures, coverslips were washed and cells were fixed in methanol/acetone (1:1) for 5 minutes at room temperature and subsequently incubated in blocking buffer (0.5% BSA and 0.1% TX-100 in PBS) for 30 minutes at room temperature. Specimens were then incubated with anti-alpha-tubulin (Sigma, 1:2000) for 1 hour at room temperature in blocking buffer. After several washing steps cells were incubated with AlexaFluor-488 goat-anti-mouse IgG (Molecular Probes, 1:3000) for 1 hour at room temperature followed by several washing steps with blocking buffer. Specimens were then mounted with ProLong Gold antifade (Molecular Probes, sealed with nail polish and examined with a Leica immunofluorescence microscope. Images were captured with a cooled CCD-camera and processed by ImageJ software.

[9] = tested on: HeLa cervical cancer cells; assay: Immunofluorescent staining of microtubules, HeLa; assay type: cell-based, human; conditions: 24 hours, 50 nM BAL27862
Method: as §5, with “Specimens were then mounted with ProLong Gold antifade (Molecular Probes, sealed with nail polish and examined with a Leica immunofluorescence microscope. Images were captured with a cooled CCD-camera and processed by ImageJ software.” left out

[10] = tested on: SKBR3 breast cancer cells; assay: Immunofluorescent staining of microtubules, SKBR3; assay type: cell-based, human; conditions: SKBR3, 24 hours, 50 nM BAL27862
Method: as §5, with “Specimens were then mounted with ProLong Gold antifade (Molecular Probes, sealed with nail polish and examined with a Leica immunofluorescence microscope. Images were captured with a cooled CCD-camera and processed by ImageJ software.” left out

[11] = tested on: experimental, solid tumour xenograft models; assay: Solid tumour xenograft models; conditions: in vivo
[12] = tested on: P-gp pump over-expressing models; assay: Models over-expressing the P-gp pump; assay type: cell-based; conditions: models tested in vitro; also human mammary tumour xenografts

Row | Compound | Response to compound (BAL27862, paclitaxel, vinblastine) [1] | Response to compound (BAL27862, paclitaxel, vinblastine) [3] | Resistance factors (ratio of IC50 BAL27862-resistant cell line variant and IC50 parental cell line) [7] | Resistance factors (ratio of IC50 BAL27862-resistant cell line variant and IC50 parental cell line) [8] | Resistance factors (ratio of IC50 BAL27862-resistant cell line variant and IC50 parental cell line) (SKOV3 resistant 1) | Resistance factors (ratio of IC50 BAL27862-resistant cell line variant and IC50 parental cell line) (SKOV3 resistant 2) | Microtubule phenotype of mitotic or G2/M arrested cells (A549 NSCLC cells) | further results
1 | N#CCCNc1nonc1-c1nc2ccccc2n1CC(=O)c1ccc(N)cc1 [BAL27862, 3-(4-{1-[2-(4-Amino-phenyl)-2-oxo-ethyl]-1H-benzoimidazol-2-yl}-furazan-3-ylamino)-propionitrile] | Sensitive | Sensitive | 3.0 | 5.3 | 7.6 | 11.6 | multiple dot-like structures are visible | IC70 BAL27862 ([1]; CXF 1103, 70% growth inhibition versus controls): 22 nM; IC70 BAL27862 ([2]; CXF 243, 70% growth inhibition versus controls): 696 nM; IC70 BAL27862 ([3]; LXFE 211, 70% growth inhibition versus controls): 21 nM; IC70 BAL27862 ([4]; LXFE 397, 70% growth inhibition versus controls): >3500 nM; Response to compound (BAL27862, paclitaxel, vinblastine) ([4]; LXFE 397, lung cancer, ex vivo colony outgrowth): Resistant (BAL27862-resistant tumour cells are defined by IC70 values >600 nanomolar); IC70 BAL27862 ([5]; MEXF 1341, 70% growth inhibition versus controls): 25 nM; Response to compound (BAL27862, paclitaxel, vinblastine) [5]: Sensitive; IC70 BAL27862 ([6]; MEXF 276, 70% growth inhibition versus controls): >3500 nM; Response to compound (BAL27862, paclitaxel, vinblastine) [6]: Resistant (BAL27862-resistant tumour cells are defined by IC70 values >600 nanomolar); BAL27862 resistance factors versus parental lines ([7]; A549, based on IC50 determinations): 3.0 fold; BAL27862 resistance factors versus parental lines ([8]; H460, based on IC50 determinations): 5.3 fold; BAL27862 resistance factors versus parental lines (SKOV3 resistant 1; SKOV3 resistant 1, based on IC50 determinations): 7.6 fold; BAL27862 resistance factors versus parental lines (SKOV3 resistant 2; SKOV3 resistant 2, based on IC50 determinations): 11.6 fold; Microtubule phenotype on combination treatment (A549 NSCLC cells; A549, 24 hours vinblastine, colchicine, paclitaxel or nocodazole with the final 4 hours including BAL27862): disruption of the microtubule structures; Microtubule phenotype of mitotic or G2/M arrested cells (A549 NSCLC cells; listed as compound A): highly reproducible and distinct microtubule phenotype; Microtubule phenotype of mitotic or G2/M arrested cells [9]: highly reproducible and distinct microtubule phenotype; Microtubule phenotype of mitotic or G2/M arrested cells [10]: highly reproducible and distinct microtubule phenotype; Activity in tumour xenograft models [11]: activity across a broad panel of experimental, solid tumour xenograft models; Activity with over-expression of the P-gp pump [12]: not affected
2 | COc1cc2c(c(OC)c1OC)-c1ccc(OC)c(=O)cc1[C@@H](NC(C)=O)CC2 [Colchicine, colchicine] |  |  | 0.9 | 1.6 | 2.0 | 2.8 |  | 
3 | Nc1ccc(C(=O)Cn2c(-c3nonc3N)nc3ccccc32)cc1 [Compound B, 2-[2-(4-Amino-furazan-3-yl)-benzoimidazol-1-yl]-1-(4-amino-phenyl)-ethanone] |  |  |  |  |  |  | highly reproducible and distinct microtubule phenotype | 
4 | N#CCCNc1nonc1-c1nc2ccccc2n1CC(=O)c1ccc(N)nc1 [Compound C, 3-(4-{1-[2-(6-Amino-pyridin-3-yl)-2-oxo-ethyl]-1H-benzoimidazol-2-yl}-furazan-3-ylamino)-propionitrile] |  |  |  |  |  |  | highly reproducible and distinct microtubule phenotype | 
5 | COC(=O)Nc1nc2ccc(C(=O)c3cccs3)cc2[nH]1 [Nocodazole, nocodazole] |  |  | 1.6 | 1.3 | 3.6 | 3.9 |  | 
6 | CC(=O)O[C@H]1C(=O)[C@@]2(C)[C@H]([C@H](OC(=O)c3ccccc3)[C@]3(O)C[C@H](OC(=O)[C@H](O)[C@@H](NC(=O)c4ccccc4)c4ccccc4)C(C)=C1C3(C)C)[C@]1(OC(C)=O)CO[C@@H]1C[C@@H]2O [Paclitaxel, paclitaxel] | Resistant (BAL27862-resistant tumour cells are defined by IC70 values >600 nanomolar) | Resistant (BAL27862-resistant tumour cells are defined by IC70 values >600 nanomolar) | 0.06 | 0.3 | 0.4 | 0.5 |  | Response to compound (BAL27862, paclitaxel, vinblastine) [2]: Resistant (BAL27862-resistant tumour cells are defined by IC70 values >600 nanomolar)
7 | CC[C@]1(O)C[C@@H]2CN(CCc3c([nH]c4ccccc34)[C@@](C(=O)OC)(c3cc4c(cc3OC)N(C)[C@H]3[C@@](O)(C(=O)OC)[C@H](OC(C)=O)[C@]5(CC)C=CCN6CC[C@]43[C@@H]65)C2)C1 [Vinblastine, vinblastine, reference compound] | Resistant (BAL27862-resistant tumour cells are defined by IC70 values >600 nanomolar) | Sensitive | 2.3 | 4.6 | 15.7 |  |  | Response to compound (BAL27862, paclitaxel, vinblastine) [2]: Sensitive; Response to compound (BAL27862, paclitaxel, vinblastine) [5]: Sensitive; Response to compound (BAL27862, paclitaxel, vinblastine) [6]: Sensitive
